The record followed here is patent publication US8940909B2, “Indicator platform” (Biosynth AG, priority 2009, dated 2015).

The subject of data set [1] is beta-galactosidase positive Eschericha coli (NM1). The data set is described as follows: IO staining of bacterial colonies on Nutrient Agar (color, fluorescence, localization, growth). For C: Color of colonies (strength): key: −: absent; +/−: weak; +: strong; ++: very strong. For F: Fluorescence of colonies (strength): key: −: absent; +/−: weak; +: strong; ++: very strong. For G: Growth of colonies: key: −: absent; +/−: weak; +: strong; ++: very strong. For L: Localization of stain on colonies: key: −: absent; +/−: weak; +: strong; ++: very strong. It counts as cell-based, E. coli. The note with it: 150 mg/l substrate and 100 mg/l IPTG; for C: Color of colonies (colour of stain) / C: Color of colonies (strength): 24 h on Nutrient Agar; for G: Growth of colonies / L: Localization of stain on colonies / F: Fluorescence of colonies (strength) / C: Color of colonies (strength): E. coli; for G: Growth of colonies / L: Localization of stain on colonies / F: Fluorescence of colonies (strength) / F: Fluorescence of colonies (colour): 24 h; for F: Fluorescence of colonies (strength) / F: Fluorescence of colonies (colour): 366 nm UV. As for the experimental part:
(§1) Nutrient Agar (5 g/l peptone, 5 g/l NaCl, 2 g/l yeast extract, 1 g/l beef extract, 13 g/l agar, pH 7.4) was autoclaved and allowed to cool to 50° C. Then indicators were added to final concentrations of 150 mg/l (from a 20 mg/ml stock solution in DMF).
(§2) Optionally IPTG was added to 100 mg/l (from a 100 mg/ml stock solution in H2O) and plates were poured. Agar plates were inoculated with cultures of beta-galactosidase positive Eschericha coli (NM1) or beta-galactosidase negative Salmonella enteritidis (RKI 05/07992) (pre-grown on nutrient broth for 8-18 hours) and incubated at 37° C. Plates were inspected at 16, 20, 24 and 48 hours and pictures were recorded at 18, 24, and 48 hours with a Digistore 2 Image documentation system (CAMAG) under white light.
(§3) A considerable number of indicators molecules (Table IVa, IVb) and a selection of labile groups (Table IVc) were tested with various microbial species producing different biomarker enzymes (external stimuli, eS). The color of stains ranges from yellow to red.
(§4) Plating media from Example 10 were examined under 366 nm UV irradiation at 16, 20, 24 and 48 hours for fluorescence by means of Digistore 2 Image documentation system (CAMAG). Loops of bacterial cells, grown for 48 hours on Nutrient Agar plates containing 150 mg/l beta-D-galactosidase indicator and 100 mg/l IPTG, were directly streaked into wells of black clear bottom microtiter plates. Fluorescence scans were recorded on a Spectramax M5 (Molecular Devices).

In data set [2] the test system is beta-galactosidase negative Salmonella enteritidis (RKI 05/07992). It is filed as cell-based. To be noted: S. enteritidis (b-gal negative), 24 h, 150 mg/l substrate and 100 mg/l IPTG; for F: Fluorescence of colonies (strength): 366 nm UV. Here is the method:
as §1, §2, §3, §4

For the compound `CC(=O)c1ccccc1-n1cc(O[C@@H]2O[C@H](CO)[C@H](O)[C@H](O)[C@H]2O)c2c(Cl)c(Br)ccc21` [Indicator I17a, 1-(2-Acetylphenyl)-5-bromo-4-chloro-1H-indol-3-yl-beta-D-galactopyranoside], in data set [1], the “C: Color of colonies (colour of stain)” value is “yellow-orange”, the “G: Growth of colonies” value is “+”, the “L: Localization of stain on colonies” value is on record as “+” and the “F: Fluorescence of colonies (strength)” value is reported as “−”. The “C: Color of colonies (strength)” value in data set [1] is on record as “+”. In addition, in data set [2], the “C: Color of colonies (strength)” value is listed as “−” and the “F: Fluorescence of colonies (strength)” value is “−”.

For the compound `COc1ccc(C(=O)c2ccccc2-n2cc(O[C@@H]3O[C@H](CO)[C@H](O)[C@H](O)[C@H]3O)c3c(Cl)cccc32)c(OC)c1` [Indicator I26a, 4-Chloro-1-[2-(2,4-dimethoxybenzoyl)phenyl]-1H-indol-3-yl-beta-D-galactopyranoside], in data set [1], the “F: Fluorescence of colonies (colour)” value is listed as “orange”, the “C: Color of colonies (colour of stain)” value is listed as “yellow-orange”, the “G: Growth of colonies” value was “+” and the “L: Localization of stain on colonies” value is on record as “+”. In data set [1], the “F: Fluorescence of colonies (strength)” value is “+/−” and the “C: Color of colonies (strength)” value is given as “+”. In data set [2], the “C: Color of colonies (strength)” value was “−” and the “F: Fluorescence of colonies (strength)” value is “−”.

For `O=C(c1ccco1)c1ccccc1-n1cc(O[C@@H]2O[C@H](CO)[C@H](O)[C@H](O)[C@H]2O)c2ccc(Cl)cc21` [Indicator I30a, 6-Chloro-1-(2-furanoylphenyl)-1H-indol-3-yl-beta-D-galactopyranoside], in data set [1], the “F: Fluorescence of colonies (colour)” value is on record as “orange-red”, the “C: Color of colonies (colour of stain)” value is recorded as “dark orange”, the “G: Growth of colonies” value is reported as “+” and the “L: Localization of stain on colonies” value is “+/−”. In data set [1], the “F: Fluorescence of colonies (strength)” value is “+/−” and the “C: Color of colonies (strength)” value is “++”. Besides, in data set [2], the “C: Color of colonies (strength)” value is reported as “−” and the “F: Fluorescence of colonies (strength)” value is given as “−”.

In the case of `COc1ccc(C(C)=O)c(-n2cc(O[C@@H]3O[C@H](CO)[C@H](O)[C@H](O)[C@H]3O)c3ccc(Cl)cc32)c1` [Indicator I18a, 1-(2-Acetyl-5-methoxyphenyl)-6-chloro-1H-indol-3-yl-beta-D-galactopyranoside], in data set [1], the “F: Fluorescence of colonies (colour)” value is recorded as “green”, the “C: Color of colonies (colour of stain)” value was “light yellow”, the “G: Growth of colonies” value was “+” and the “L: Localization of stain on colonies” value is “+/−”. Also, in data set [1], the “F: Fluorescence of colonies (strength)” value is “+/−” and the “C: Color of colonies (strength)” value is recorded as “+”. In data set [2], the “C: Color of colonies (strength)” value is recorded as “−” and the “F: Fluorescence of colonies (strength)” value is on record as “−”.

`O=C(c1ccccc1)c1ccccc1-n1cc(O[C@@H]2O[C@H](CO)[C@H](O)[C@H](O)[C@H]2O)c2c(Cl)cccc21` [Indicator I20a, 1-(2-Benzoylphenyl)-4-chloro-1H-indol-3-yl-beta-D-galactopyranoside]: in data set [1], the “F: Fluorescence of colonies (colour)” value was “orange”, the “C: Color of colonies (colour of stain)” value is given as “orange”, the “G: Growth of colonies” value is “+” and the “L: Localization of stain on colonies” value is “cryst”. In data set [1], the “F: Fluorescence of colonies (strength)” value was “+/−” and the “C: Color of colonies (strength)” value is recorded as “+/−”. Further, in data set [2], the “C: Color of colonies (strength)” value is “−” and the “F: Fluorescence of colonies (strength)” value is “−”.
